Results as given in patent US4334078A, “Dibenzothiophenes” (Hoffmann-La Roche Inc., priority 1980, dated 1982).

Tested on: mice
Assay: acute toxicity (LD50)
Type: in vivo
Conditions: p.o. in mice

## O=C(O)Cc1ccc2c(c1)sc1ccc(Cl)cc12 [8-chloro-dibenzothiophene-3-acetic acid]
  LD50: 775 mg
